Data set [1] in a line: Solubility at pH 7.4. The format is physicochemical. Particulars: buffer.
A further data set has as its system Bacteria. The data set is described as follows: Minimum inhibitory concentration required against six gram-positive organisms (G+6). It is filed as functional.
Another data set deals with Staphylococcus aureus. Nature of the data set: Inhibitory concentration required against cell wall synthesis in Staphylococcus aureus (MI246). The format is functional, organism-based.

This note sets out measurements from ChEMBL document CHEMBL1134249, “The identification and characterization of hydrazinyl urea-based antibacterial agents through combinatorial chemistry” (Bioorg Med Chem Lett, 2001).

In brackets after ≈: the same amount, converted by molar mass.

As for `CCc1nc2ccccc2c(=O)n1NC(=O)Nc1cc(C(F)(F)F)cc(C(F)(F)F)c1`, the concentration in solution in data set [1] (solubility) was 59 µg/mL (≈ 133 µM). This compound gave an MIC in the data set with Bacteria of 7 µM (≈ 3.11 µg/mL). Moreover, in the data set on Staphylococcus aureus, the half-inhibitory concentration (IC50) turned out to be 36 µM.
Compound `CC(C)c1nc2ccccc2c(=O)n1NC(=O)Nc1ccc(C(F)(F)F)cc1` showed a solubility in data set [1] of 6 µg/mL (≈ 15.4 µM). Further, 10 µM (≈ 3.9 µg/mL) was the least that counted as inhibitory in the data set on Bacteria (MIC). This compound gave an IC50 in the data set with Staphylococcus aureus of 44 µM.
In data set [1], `O=C(Nc1cc(C(F)(F)F)cc(C(F)(F)F)c1)NN1CCOCC1` yielded a solubility of 5 µg/mL (≈ 14 µM). The same compound yielded a minimum inhibitory concentration (MIC) in the data set on Bacteria of 68 µM (≈ 24.3 µg/mL). Moreover, the IC50 with Staphylococcus aureus came out at 135 µM.
Compound `CC(C)c1nc2ccccc2c(=O)n1NC(=O)Nc1cc(C(F)(F)F)cc(C(F)(F)F)c1` returned a solubility in data set [1] of 3 µg/mL (≈ 6.55 µM). Besides, the MIC with Bacteria came out at 1.5 µM (≈ 0.688 µg/mL). The same compound registered an IC50 in the data set with Staphylococcus aureus of 66 µM.
`O=C(Nc1cc(C(F)(F)F)cc(C(F)(F)F)c1)Nn1cnnc1` came in with a solubility in data set [1] of 53 µg/mL (≈ 156 µM). Further, the MIC against Bacteria stood at 198 µM (≈ 67.2 µg/mL). In the data set with Staphylococcus aureus, this compound displayed an IC50 of 236 µM.
On to `O=C(NNC(=O)Nc1cc(C(F)(F)F)cc(C(F)(F)F)c1)Nc1cc(C(F)(F)F)cc(C(F)(F)F)c1`, for which the solubility in data set [1] is below 0.5 µg/mL. Besides, in the data set with Bacteria, the MIC came out at 3 µM (≈ 1.63 µg/mL). In the data set with Staphylococcus aureus, this compound came in with an IC50 of 17 µM.
With `CN[C@H](CC(C)C)C(=O)N[C@H]1C(=O)N[C@@H](CC(N)=O)C(=O)N[C@H]2C(=O)N[C@H]3C(=O)N[C@H](C(=O)N[C@H](C(=O)O)c4cc(O)cc(O)c4-c4cc3ccc4O)[C@H](O)c3ccc(c(Cl)c3)Oc3cc2cc(c3O[C@@H]2O[C@H](CO)[C@@H](O)[C@H](O)[C@H]2O[C@H]2C[C@](C)(N)[C@H](O)[C@H](C)O2)Oc2ccc(cc2Cl)[C@H]1O` [VANCOMYCIN], the MIC in the data set on Bacteria stood at 0.3 µM (≈ 0.435 µg/mL). The compound further gave an IC50 in the data set with Staphylococcus aureus of 0.4 µM.
Take `O=C(Nc1cc(C(F)(F)F)cc(C(F)(F)F)c1)NN1CCN(CCO)CC1`: the MIC in the data set on Bacteria is above 300 µM. The IC50 in the data set with Staphylococcus aureus was 167 µM.
On to `O=C(NNC(=O)Nc1cc(C(F)(F)F)cc(C(F)(F)F)c1)Nc1ccc(C(F)(F)F)cc1`, for which, in the data set on Bacteria, it took 2 µM (≈ 0.949 µg/mL) to inhibit growth (MIC). This compound also had an IC50 with Staphylococcus aureus of 145 µM.
As to `O=C(NNc1nccc(C(F)(F)F)n1)Nc1cc(C(F)(F)F)cc(C(F)(F)F)c1`, the concentration in solution in data set [1] (solubility) was 2 µg/mL (≈ 4.62 µM). The MIC in the data set with Bacteria is 4 µM (≈ 1.73 µg/mL). In addition, in the data set with Staphylococcus aureus, the IC50 came out at 47 µM.

As a reminder, the solubility is the concentration that dissolves in the medium under given conditions. A high value points to much dissolved substance. By MIC is commonly meant the lowest concentration found to suppress growth. Low values mean inhibition by little substance, high ones a need for much substance. By IC50 is commonly meant the concentration that gives 50% inhibition. Read a high IC50 as a need for much substance.
